According to patent publication US20250381176A1, “SCD1 INHIBITORS FOR TREATING LIVER DISEASE” (MODULATION THERAPEUTICS, INC., priority 2022, published 2025):
Entries after “also recorded” stand apart in the source; their conditions may differ.

Columns and labels:
SCD1 mRNA = conditions: cited from earlier work
[1] = Oral PK in dogs (Table 1); format: in vivo; conditions: dog, plasma, canine, 20 mg/kg oral gavage
SCD1 = target: T1, SCD1 (Homo sapiens, UniProt O00767); experiment: SCD1 enzyme inhibition (conversion of 13C18-stearoyl CoA to 13C18-oleoyl, LC-MS/MS, liver microsomes); format: biochemical
T1 construct: conversion of ^13C18-stearoyl CoA to ^13C18-oleoyl using LC-MS/MS in liver microsomes; from tissue; host or cells: liver microsomes
T1 sequence (O00767 1-359): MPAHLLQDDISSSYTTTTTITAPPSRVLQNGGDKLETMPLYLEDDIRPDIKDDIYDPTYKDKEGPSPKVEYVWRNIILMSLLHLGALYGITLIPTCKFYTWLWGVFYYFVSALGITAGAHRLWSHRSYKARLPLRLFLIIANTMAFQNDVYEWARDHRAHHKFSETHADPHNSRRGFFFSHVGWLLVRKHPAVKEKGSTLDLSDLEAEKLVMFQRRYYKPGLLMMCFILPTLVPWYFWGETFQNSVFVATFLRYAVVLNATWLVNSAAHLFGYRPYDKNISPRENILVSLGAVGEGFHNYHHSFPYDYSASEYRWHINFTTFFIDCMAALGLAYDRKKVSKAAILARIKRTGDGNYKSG

[2] = 14-day repeat oral dosing toxicity/toxicokinetics in dogs; format: in vivo
Method: Healthy beagles (Canis lupis familiaris) were dosed daily (oral gavage) for 14 days, and blood was collected on day 15.
A dosing regimen has been determined for Compound 1. Single dose and 7-day dosing non-GLP toxicity has been performed in rats and dogs and GLP toxicity in dogs 14 days repeat dosing. […] Dose conversion has been done via allometry based on body surface area.
These issues were attributed to atrophy of the Meibomian gland (the specialized sebaceous gland of the eyelid—see, e.g., FIG. 6). […] Mitigation the sequelae of events that occur due to dry eye is achieved by prophylactic administration of lipid eye drops and clinical eye exam every 14 days during a clinical trial.

[3] = Oral PK in rats (Table 1); format: in vivo; conditions: plasma, Sprague Dawley rat, 12.5 mg/kg oral gavage
[4] = Non-GLP pharmacokinetic (PK) and toxicokinetic (TK) studies; format: in vivo, mice, rats and dogs
known kinases = experiment: Off-target reactivity with kinases; format: biochemical
[5] = Oral tolerability in male and female rats; format: in vivo
[6] = test system: C57BL6/J male mice fed on a Western Diet; experiment: Western Diet-induced liver steatosis in mice, Compound 1 at 2 mg/kg IP for 10 days; format: in vivo
Method: The study was performed with C57BL6/J male mice, placed on a Western Diet for 4 months, and treated for 10 days IP with Compound 1 (2 mg/kg−N=3; *P<0.05)

[7] = Oral PK in mice (Table 1); format: in vivo; conditions: mouse, plasma, C57BL/6 mice, 10 mg/kg oral gavage
Method: Serum chemistry and histochemical analysis is done for both the Western Diet and MCD mouse models. Body weight and Echo-MRI is used to determine lean muscle, fat, and water content of the mice. At the end of the study, the animals are fasted overnight, and blood samples are collected for serum chemistry. A full panel of liver and metabolite biomarkers are assessed. This standard panel includes triglycerides and total cholesterol, triglycerides (TG), ALP, ALT, AST, Creatinine kinase, amylase, lipase, total bilirubin, LDH, as well as calcium, bicarbonate, potassium and sodium. Liver function tests from this panel include Aspartate aminotransferase level (AST), Alanine aminotransferase level […], GGT, Apolipoprotein, Glucose levels, and Alkaline Phosphatase (ALP), Proc-3, GAL-3, YKL-40, CK-18 and Caspase cleaved (MN-65, MN-30). Additionally, insulin, leptin and adiponectin levels are assessed as part of validation of models.
Compound 1 quantification from mouse plasma is performed using LC-MS/MS on ExionLC system equipped with Kinetex XB-C18, 2.1×50 mm (Phenomenex 00B-4496-AN) column coupled with AB Sciex 5500 QTrap instrument (equipped with TurboIonspray ionization source and Analyst software), with Acetonitrile/water/0.1% v/v formic acid as mobile phase. Blood samples collected are centrifuged at 1300 g, 2-8° C., ≥10 minutes and the collected plasma are stored either on ice (less than 1 hour) or at −80° C. until further processing. Predetermined quantities of plasma are vortexed with ice-cold acetonitrile to precipitate the protein content and centrifuged at 1300 g, 2-8° C., ≥10 minutes. Supernatant is taken in a labelled vial and evaporated at 40° C. under a gentle stream of nitrogen. The precipitates are reconstituted in LC-MS grade methanol and centrifuged at 1300 g, 2-8° C., ≥10 minutes. The supernatant is sampled for LC-MS/MS analysis. The concentration of Compound 1 is estimated by standard curve developed from plasma standards spiked with deuterium labeled Compound 1 as internal standard. Deuterium labeled Compound 1 is on-hand. In some embodiments, deuterium labeled Compound 1 has the following structure: […]

[8] = meta-analysis, off-label use; cited from earlier work
[9] = 4 hour, read-out: Drug in Plasma, 4 hour
[10] = 8 hour, read-out: Drug in Plasma, 8 hour
[11] = 24 hour, read-out: Drug in Plasma, 24 hour
[12] = Compound 1 alone, Western Diet mice

## CCCCCCCCCCCCCCCCCCCC(=O)N[C@H]1CC[C@@]2(C)[C@@H](C1)C[C@@H](O)[C@@H]1[C@@H]2C[C@H](O)[C@]2(C)[C@@H]([C@H](C)CCC(=O)O)CC[C@@H]12 [Aramchol]
SCD1 mRNA
  SCD1 mRNA expression levels: reduces expression of the mRNA for SCD1; also recorded: downregulates SCD1; also recorded: reduces SCD1 mRNA expression levels

## CNC(=O)c1ccnc(NC(=O)N2CCC(Oc3ccccc3Cl)CC2)c1 [Compound 1]
[1]
  AUC(0-t): 90500 ng·h/mL
  Cmax: 12500 ng/mL
  Tmax: 60 min
[1]; [9]
  concentration at 4 h: 8310 ng/mL
[1]; [10]
  concentration at 8 h: 3200 ng/mL
[1]; [11]
  concentration at 24 h: 212 ng/mL
SCD1
  mode of SCD1 inhibition: inhibits enzymatic activity competitively; also recorded: competitive inhibition; also recorded: reversible
SCD1; 13C18-stearoyl CoA to 13C18-oleoyl, LC-MS/MS, liver microsomes, read-out: IC50 for blocking SCD1 enzymatic activity
  IC50: 1.9 nM
[2]; 14-day GLP dog study
  chemistry, urinalysis, electrocardiograph and hematological parameters vs vehicle control: no substantial differences
[2]; 14-day recover dogs (2M/2F)
  reversibility of eye damage: Most of the damage to eyes was reversible
[2]; beagles, daily oral gavage 14 days
  WBC: no dramatic changes
[2]; beagles, daily oral gavage 14 days, blood on day 15
  liver enzymes or cholesterol levels: no significant changes
[2]; both sexes, beagle, dog, in vivo, dogs, oral, read-out: maximum tolerated dose (MTD)
  MTD at 14 days: 20 mg/kg
[2]; dog, in vivo
  therapeutic window for the treatment of NASH: wide therapeutic window
[2]; dogs at the maximum tolerated doses
  ophthalmic observations: inflammation of the ocular surface with occasional corneal ulceration and low intraocular pressure
[2]; dogs, 14-day repeat dosing, high doses
  dose limiting toxicity: ocular inflammation
[3]
  AUC(0-t): 96400 ng·h/mL
  Cmax: 11600 ng/mL
  Tmax: 30 min
[3]; [9]
  concentration at 4 h: 8920 ng/mL
[3]; [10]
  concentration at 8 h: 4130 ng/mL
[3]; [11]
  concentration at 24 h: 437 ng/mL
[4]; in vivo, po
  oral bioavailability: good oral bioavailability; also recorded: favorable oral bioavailability; also recorded: orally bioavailable
[4]; mice, rats and dogs
  tolerability: well-tolerated
Known kinases
  off-target reactivity with kinases: does not significantly react off-target with any known kinases
[5]; oral 50-300 mg/kg
  induction of liver enzymes: does not induce liver enzymes
[5]; oral dose range 50-300 mg/kg
  tolerability: well tolerated
[6]; [12]
  plasma glucose: does not reduce
  plasma triglycerides: does not reduce
[6]; Western Diet 4 months, 2 mg/kg IP 10 days, H&E quantification, N=3, 2 mg/kg
  liver steatosis: reversal of liver steatosis; also recorded: significant reduction in liver steatohepatitis; also recorded: significantly reduced liver steatosis; also recorded: reduces liver steatosis
[6]; Western Diet 4 months, 2 mg/kg IP 10 days, N=3, 2 mg/kg
  liver function plasma markers / serum chemistry (ALP and BUN levels): Significant attenuation of liver damage; also recorded: improved liver function plasma markers; also recorded: significantly improves liver function tests
[6]; preliminary data
  efficacious dose for NASH: 2 mg/kg
[7]
  AUC(0-t): 20900 ng·h/mL
  Cmax: 4320 ng/mL
[7]; [9]
  concentration at 4 h: ~3000 ng/mL
[7]; [10]
  concentration at 8 h: ~900 ng/mL
[7]; [11]
  concentration at 24 h: ~25 ng/mL

## CCc1ccc(CCOc2ccc(CC3SC(=O)NC3=O)cc2)nc1 (stereo not drawn) [pioglitazone]
[8]
  efficacy in human NAFLD: efficacious in human NAFLD
